Assay results from the supplement of paper PMC4862054.

Columns and labels:
Settings in all cases: incubation time: 72 h
[1] = system: BT-474; test: normalised viability (% of control), CellTiter-Blue; higher = more viable cells (about 100 = DMSO control)
Description: (§1)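 DSRT, CellTiter-Blue viability, 72 h incubation. Signal is normalised to DMSO and benzethonium chloride controls. Value is the normalised response at dose 3.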

[2] = system: BT-549; test: as above
Description: as §1

[3] = system: CAL-120; test: as above
Description: as §1

[4] = system: CAL-148; test: as above
Description: as §1

[5] = system: CAL-51; test: as above
Description: as §1

[6] = system: CAL-85-1; test: as above
Description: as §1

[7] = system: DU-4475; test: as above
Description: as §1

[8] = system: HCC1143; test: as above
Description: as §1

[9] = system: HCC1599; test: as above
Description: as §1

[10] = system: HCC1937; test: as above
Description: as §1

[11] = system: HDQ-P1; test: as above
Description: as §1

[12] = system: Hs578T; test: as above
Description: as §1

[13] = system: MDA-MB-231; test: as above
Description: as §1

[14] = system: MDA-MB-436; test: as above
Description: as §1

[15] = system: MDA-MB-453; test: as above
Description: as §1

[16] = system: MDA-MB-468; test: as above
Description: as §1

[17] = system: MFM-223; test: as above
Description: as §1

[18] = system: SK-BR-3; test: as above
Description: as §1

[19] = system: CAL-148; test: as above; remark: listed apart in the source
Description: (§2)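 DSRT, CellTiter-Blue viability, 72 h incubation. Signal is normalised to DMSO and benzethonium chloride controls. Value is the normalised response at dose 7.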

[20] = system: CAL-51; test: as above; remark: listed apart in the source
Description: as §2

[21] = system: CAL-85-1; test: as above; remark: listed apart in the source
Description: as §2

[22] = system: DU-4475; test: as above; remark: listed apart in the source
Description: as §2

[23] = system: HDQ-P1; test: as above; remark: listed apart in the source
Description: as §2

[24] = system: MDA-MB-453; test: as above; remark: listed apart in the source
Description: as §2

[25] = system: CAL-148; test: normalised viability (% of control), CellTiter-Blue; higher = more viable cells (about 100 = DMSO control); remark: listed apart in the source
Outline: (§3)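 Normalised viability is given for a single listed concentration of the series. In 384-well plates, breast cancer cell lines were incubated 72 h with compound, then read with CellTiter-Blue (2 h, 37 °C) at 560/590 nm. Per-plate scaling set vehicle to 100 and a positive kill control to 0, with Z'-factor quality control.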

[26] = system: CAL-51; test: as above; remark: listed apart in the source
Outline: as §3

[27] = system: CAL-85-1; test: as above; remark: listed apart in the source
Outline: as §3

[28] = system: CAL-120; test: drug sensitivity score (DSS), CellTiter-Glo (DSS (AUC-based score)); higher = stronger drug effect (viability inhibition or cytotoxicity); extreme values may be limits of the assay
Outline: (§4)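 Using 20 µl of cell suspension per well, breast cancer cell lines were seeded into 384-well plates pre-loaded with compound at 5 concentrations in 10-fold steps across a compound-specific 10,000-fold range. Incubation lasted 72 h, after which CellTox Green fluorescence at 485/520 nm and then CellTiter-Glo luminescence, following 10 min at room temperature, were recorded. Each plate was normalised to 0.1 % DMSO and a positive kill control before the drug sensitivity score was derived from the area under the fitted dose-response curve.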

[29] = system: CAL-51; test: as above
Outline: as §4

[30] = system: SK-BR-3; test: as above
Outline: as §4

CCCCC(=O)OCC(=O)[C@]1(O)Cc2c(O)c3c(c(O)c2[C@@H](O[C@H]2C[C@H](NC(=O)C(F)(F)F)[C@H](O)[C@H](C)O2)C1)C(=O)c1c(OC)cccc1C3=O [Valrubicin]
normalised viability ([1]; 100 nM): 109% | normalised viability ([2]; 100 nM): 85.2% | normalised viability ([3]; 100 nM): 77.3% | normalised viability ([4]; 10 nM): 91.6% | normalised viability ([5]; 10 nM): 92.2% | normalised viability ([6]; 10 nM): 84.2% | normalised viability ([7]; 10 nM): 89.4% | normalised viability ([8]; 100 nM): 86.4% | normalised viability ([9]; 100 nM): 92.2% | normalised viability ([10]; 100 nM): 73.7% | normalised viability ([11]; 10 nM): 120% | normalised viability ([12]; 100 nM): 79.7% | normalised viability ([13]; 100 nM): 77% | normalised viability ([14]; 100 nM): 122% | normalised viability ([15]; 10 nM): 103% | normalised viability ([16]; 100 nM): 92.1% | normalised viability ([17]; 100 nM): 91.9% | normalised viability ([18]; 100 nM): 57.8% | normalised viability ([19]; 1000 nM): 2.49% | normalised viability ([20]; 1000 nM): 23.1% | normalised viability ([21]; 1000 nM): 61.3% | normalised viability ([22]; 1000 nM): 2.39% | normalised viability ([23]; 1000 nM): 58% | normalised viability ([24]; 1000 nM): 55.7% | normalised viability ([25]; 10000 nM): 1.24% | normalised viability ([26]; 10000 nM): 2.32% | normalised viability ([27]; 10000 nM): 18.6% | drug sensitivity score [28]: 0 | drug sensitivity score [29]: 16.8 | drug sensitivity score [30]: 12.4

COc1cc2c(Oc3ccc4[nH]c(C)cc4c3F)ncnc2cc1OCCCN1CCCC1 [Cediranib]
normalised viability ([1]; 10 nM): 98.4% | normalised viability ([2]; 10 nM): 78.1% | normalised viability ([3]; 10 nM): 112% | normalised viability ([4]; 1 nM): 97.3% | normalised viability ([5]; 1 nM): 87.2% | normalised viability ([6]; 1 nM): 105% | normalised viability ([7]; 1 nM): 97.6% | normalised viability ([8]; 10 nM): 125% | normalised viability ([9]; 10 nM): 95.1% | normalised viability ([10]; 10 nM): 96.6% | normalised viability ([11]; 1 nM): 92.7% | normalised viability ([12]; 10 nM): 78.1% | normalised viability ([13]; 10 nM): 82.1% | normalised viability ([14]; 10 nM): 92.9% | normalised viability ([15]; 1 nM): 78.9% | normalised viability ([16]; 10 nM): 103% | normalised viability ([17]; 10 nM): 78.9% | normalised viability ([18]; 10 nM): 65.8% | normalised viability ([19]; 100 nM): 108% | normalised viability ([20]; 100 nM): 81.6% | normalised viability ([21]; 100 nM): 95.6% | normalised viability ([22]; 100 nM): 81.3% | normalised viability ([23]; 100 nM): 95.9% | normalised viability ([24]; 100 nM): 92% | normalised viability ([25]; 1000 nM): 113% | normalised viability ([26]; 1000 nM): 74.1% | normalised viability ([27]; 1000 nM): 102% | drug sensitivity score [28]: 0 | drug sensitivity score [29]: 0 | drug sensitivity score [30]: 0

CC1=C(/C=C/C(C)=C/C=C/C(C)=C/C(=O)O)C(C)(C)CCC1 [Tretinoin]
normalised viability ([1]; 100 nM): 122% | normalised viability ([2]; 100 nM): 107% | normalised viability ([3]; 100 nM): 77.7% | normalised viability ([4]; 10 nM): 92.1% | normalised viability ([5]; 10 nM): 100% | normalised viability ([6]; 10 nM): 99.2% | normalised viability ([7]; 10 nM): 100% | normalised viability ([8]; 100 nM): 86.2% | normalised viability ([9]; 100 nM): 92.2% | normalised viability ([10]; 100 nM): 98.9% | normalised viability ([11]; 10 nM): 125% | normalised viability ([12]; 100 nM): 91.5% | normalised viability ([13]; 100 nM): 94% | normalised viability ([14]; 100 nM): 99.5% | normalised viability ([15]; 10 nM): 92.9% | normalised viability ([16]; 100 nM): 115% | normalised viability ([17]; 100 nM): 86.2% | normalised viability ([18]; 100 nM): 87.1% | normalised viability ([19]; 1000 nM): 81.2% | normalised viability ([20]; 1000 nM): 93.2% | normalised viability ([21]; 1000 nM): 82.2% | normalised viability ([22]; 1000 nM): 102% | normalised viability ([23]; 1000 nM): 109% | normalised viability ([24]; 1000 nM): 117% | normalised viability ([25]; 10000 nM): 78.3% | normalised viability ([26]; 10000 nM): 98% | normalised viability ([27]; 10000 nM): 90.6% | drug sensitivity score [28]: 0 | drug sensitivity score [29]: 0 | drug sensitivity score [30]: 7.99
